The text below walks through data of patent publication US8642585B2, “Indanyloxydihydrobenzofuranylacetic acids” (Boehringer Ingelheim International GmbH, priority 2012, dated 2014).

This assay has as its target human GPR40 receptor (Homo sapiens, UniProt O14842). In words: Assay I: IP1 accumulation (IPOne HTRF) in 1321N1 cells stably expressing human GPR40. Conditions: 1321N1 cells expressing human GPR40, stimulation 1 hour at 37° C., 10% CO2, final LiCl 50 mM. In kind it is cell-based. The method, then:
IP1 accumulation measurements using the IPOne assay system—1321N1 cells stably expressing human GPR40 receptor (Euroscreen, Belgium) are seeded 24 h before the assay in black clear-bottom collagen-coated 384-well plates in culture medium containing 10% FCS, 1% Na-Pyruvate and 400 μg/mL G418. IP1 is assayed according to the Manufacturers description (Cisbio Bioassays, France). In brief, the assay is started by substitution of the culture medium by stimulation buffer (Hepes 10 mM, CaCl2 1 mM, MgCl2 0.5 mM, KCl 4.2 mM, NaCl 146 mM and glucose 5.5 mM, pH 7.4) without LiCl. Cells are stimulated for 1 hour at 37° C., 10% CO2 by addition of the compounds that are diluted in stimulation buffer containing LiCl yielding a final LiCl concentration of 50 mM. Assays are stopped by adding HTRF-conjugates (IP1-d2 and Anti-IP1 cryptate Tb) and lysis buffer, provided by the manufacturer. After an incubation time of 1 hour at room temperature plates are measured using an EnVision™, Perkin Elmer. The obtained fluorescence ratios at 665/615 nM are then used to calculate the pEC50 values using GraphPad Prism 5 (Graphpad Software Inc, USA) by interpolation using an IP1 reference curve and subsequent sigmoidal curve fitting allowing for a variable hill slope.

Sequence of human GPR40 receptor (O14842 whole entry): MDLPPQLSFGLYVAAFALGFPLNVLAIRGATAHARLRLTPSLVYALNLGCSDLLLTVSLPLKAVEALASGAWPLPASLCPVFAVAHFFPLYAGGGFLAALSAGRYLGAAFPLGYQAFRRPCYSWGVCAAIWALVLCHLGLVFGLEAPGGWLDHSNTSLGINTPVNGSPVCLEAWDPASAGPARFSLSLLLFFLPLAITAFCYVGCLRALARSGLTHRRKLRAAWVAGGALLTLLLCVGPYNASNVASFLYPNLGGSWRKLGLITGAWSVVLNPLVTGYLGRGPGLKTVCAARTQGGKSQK

As for `Cc1cc(-c2cncnc2)cc(C)c1-c1ccc(F)c2c1CC[C@H]2Oc1ccc2c(c1)OC[C@H]2CC(=O)O` [Example 17, 2-((S)-6-((R)-4-(2,6-Dimethyl-4-(pyrimidin-5-yl)phenyl)-7-fluoro-2,3-dihydro-1H-inden-1-yloxy)-2,3-dihydrobenzofuran-3-yl)acetic acid], it took 4 nM to reach a half-maximal effect (EC50).
Regarding `Cc1cc(OCCS(C)(=O)=O)cc(C)c1-c1ccc(F)c2c1CC[C@H]2Oc1ccc2c(c1)OC[C@H]2CC(=O)O` [Example 6, 2-((S)-6-((R)-4-(2,6-Dimethyl-4-(2-(methylsulfonyl)ethoxy)phenyl)-7-fluoro-2,3-dihydro-1H-inden-1-yloxy)-2,3-dihydrobenzofuran-3-yl)acetic acid], the EC50 stood at 22 nM. Against the preceding molecule, the EC50 is about 5.5-fold higher.
Molecule `Cc1cc(OCC2CCS(=O)(=O)C2)cc(C)c1-c1ccc(F)c2c1CC[C@H]2Oc1ccc2c(c1)OC[C@H]2CC(=O)O` (stereo partly drawn) [Example 27, 2-((3S)-6-((1R)-4-(2,6-Dimethyl-4-((1,1-dioxo-tetrahydrothiophen-3-yl)methoxy)phenyl)-7-fluoro-2,3-dihydro-1H-inden-1-yloxy)-2,3-dihydrobenzofuran-3-yl)acetic acid] gave an EC50 of 9 nM. This EC50 lies about 2.4-fold lower than the previous one.
In turn, `Cc1cc(OCCCS(C)(=O)=O)cc(C)c1-c1ccc(F)c2c1CC[C@H]2Oc1ccc2c(c1)OC[C@H]2CC(=O)O` [Example 57, 2-((S)-6-((R)-4-(2,6-Dimethyl-4-(3-(methylsulfonyl)propoxy)phenyl)-7-fluoro-2,3-dihydro-1H-inden-1-yloxy)-2,3-dihydrobenzofuran-3-yl)acetic acid] came in with an EC50 of 26 nM.
As to `Cc1c(OC2CCS(=O)(=O)CC2)cccc1-c1ccc(F)c2c1CC[C@H]2Oc1ccc2c(c1)OC[C@H]2CC(=O)O` [Example 38, ((S)-6-{(R)-4-[3-(1,1-Dioxo-hexahydro-1-thiopyran-4-yloxy)-2-methyl-phenyl]-7-fluoro-indan-1-yloxy}-2,3-dihydro-benzofuran-3-yl)-acetic acid], the response was half-maximal at 76 nM (EC50).
`Cc1cc(OC2CN(S(C)(=O)=O)C2)cc(C)c1-c1ccc(F)c2c1CC[C@H]2Oc1ccc2c(c1)OC[C@H]2CC(=O)O` [Example 26, 2-((S)-6-((R)-4-(2,6-Dimethyl-4-(1-(methylsulfonyl)azetidin-3-yloxy)phenyl)-7-fluoro-2,3-dihydro-1H-inden-1-yloxy)-2,3-dihydrobenzofuran-3-yl)acetic acid] returned a 50% effective concentration (EC50) of 17 nM.
Under `Cc1cc(OCC2CCN(S(C)(=O)=O)CC2)cc(C)c1-c1ccc(F)c2c1CC[C@H]2Oc1ccc2c(c1)OC[C@H]2CC(=O)O` [Example 35, 2-((S)-6-((R)-4-(2,6-Dimethyl-4-((1-(methylsulfonyl)piperidin-4-yl)methoxy)phenyl)-7-fluoro-2,3-dihydro-1H-inden-1-yloxy)-2,3-dihydrobenzofuran-3-yl)acetic acid] stands 57 nM.
As for `Cc1cc(OCC2CN(S(=O)(=O)C(C)C)C2)cc(C)c1-c1ccc(F)c2c1CC[C@H]2Oc1ccc2c(c1)OC[C@H]2CC(=O)O` [Example 31, 2-((S)-6-((R)-7-Fluoro-4-(4-((1-(isopropylsulfonyl)azetidin-3-yl)methoxy)-2,6-dimethylphenyl)-2,3-dihydro-1H-inden-1-yloxy)-2,3-dihydrobenzofuran-3-yl)acetic acid], a half-maximal response (EC50) required 17 nM.
The molecule `COc1cc(COc2cc(C)c(-c3ccc(F)c4c3CC[C@H]4Oc3ccc4c(c3)OC[C@H]4CC(=O)O)c(C)c2)ccn1` [Example 147, 2-((S)-6-((R)-7-fluoro-4-(4-((2-methoxypyridin-4-yl)methoxy)-2,6-dimethylphenyl)-2,3-dihydro-1H-inden-1-yloxy)-2,3-dihydrobenzofuran-3-yl)acetic acid] yielded an EC50 of 2 nM.
In turn, `Cc1c(C(N)=O)cccc1-c1ccc(F)c2c1CC[C@H]2Oc1ccc2c(c1)OC[C@H]2CC(=O)O` [Example 59, 2-((3S)-6-((1R)-4-(3-Carbamoyl-2-methylphenyl)-7-fluoro-2,3-dihydro-1H-inden-1-yloxy)-2,3-dihydrobenzofuran-3-yl)acetic acid] had an EC50 of 117 nM.
